Test results as given in the Deep4Chem optical property database.

Assay: photoluminescence quantum yield (fraction); solvent given as SMILES
[1] = in c1ccc2c(c1)c1ccccc1n2-c1ccc(-c2ccc(-n3c4ccccc4c4ccccc43)cc2)cc1
[2] = in O=P(c1ccccc1)(c1ccccc1)c1ccccc1Oc1ccccc1P(=O)(c1ccccc1)c1ccccc1

SMILES: CC1=CC(C)=[N+]2C1=C(c1ccc(N(C)C)cc1)c1c(C)cc(C)n1[B-]2(F)F
- photoluminescence quantum yield (in C1CCOC1): 0.014
- photoluminescence quantum yield (in CC#N): 0.005
- photoluminescence quantum yield (in CC(=O)C(C)(C)C): 0.015
- photoluminescence quantum yield (in CC(C)=O): 0.009
- photoluminescence quantum yield (in CCCCCC): 0.441
- photoluminescence quantum yield (in CCOC(C)=O): 0.011

SMILES: CCOC(=O)/C=C/C1=C(c2ccc(C)cc2)C2=Nc3c(-c4ccc(C)cc4)cc(-c4ccc(C)cc4)n3[B-](F)(F)[N+]2=C1c1ccc(C)cc1
- photoluminescence quantum yield (in ClC(Cl)Cl): 0.24

SMILES: N#Cc1cc(-n2c3ccccc3c3ccccc32)c(-n2c3ccccc3c3ccccc32)cc1C#N
- photoluminescence quantum yield (in C1CCOC1): 0.125
- photoluminescence quantum yield (in Cc1ccccc1): 0.465
- photoluminescence quantum yield [1]: 0.6

SMILES: COc1c2ccccc2c(OC)c2c1c1ccccc1n2C
- photoluminescence quantum yield (in C1CCCCC1): 0.46
- photoluminescence quantum yield (in CC#N): 0.55
- photoluminescence quantum yield (in CO): 0.39
- photoluminescence quantum yield (in ClCCl): 0.41

SMILES: F[B-]1(F)Oc2ccccc2-c2n(-c3ccc(C(F)(F)F)cc3)c(-c3ccccc3)c(-c3ccccc3)[n+]21
- photoluminescence quantum yield (in C1CCOC1): 0.49

SMILES: Oc1cccc2c(C3(O)C4CC5CC(C4)CC3C5)cccc12 (stereo unspecified)
- photoluminescence quantum yield (in CC#N): 0.33

SMILES: Nc1n[n+]([O-])c2cc(F)ccc2[n+]1[O-]
- photoluminescence quantum yield (in CC#N): 0.0077
- photoluminescence quantum yield (in O): 0.003

SMILES: c1ccc(-c2ccnc(-c3ccccc3)n2)cc1
- photoluminescence quantum yield (in ClC(Cl)Cl): 0.51

SMILES: CCOc1ccc2c(-c3nc(-c4cccc(Br)c4)no3)cc(=O)oc2c1
- photoluminescence quantum yield (in CCO): 0.52
- photoluminescence quantum yield (in ClC(Cl)Cl): 0.2

SMILES: CCCC1(CCC)c2cc(-c3ccc4c(c3)C(CCC)(CCC)c3cc(C(C)(C)CC)ccc3-4)ccc2-c2ccc(-c3ccc4c(c3)C(CCC)(CCC)c3cc(C(C)(C)CC)ccc3-4)cc21
- photoluminescence quantum yield (in C1CCCCC1): 0.93

SMILES: C=CC1CN2CCC1CC2[C@@H](OCc1ccccc1)c1ccnc2ccc(O)cc12 (stereo partly specified)
- photoluminescence quantum yield (in C1CCOC1): 0.12
- photoluminescence quantum yield (in CC#N): 0.016
- photoluminescence quantum yield (in CCCC#N): 0.021
- photoluminescence quantum yield (in Cc1ccccc1): 0.06
- photoluminescence quantum yield (in ClCCl): 0.035

SMILES: O=c1cc(-c2nc3ccccn3c2NC2CCCCC2)occ1OCc1ccccc1
- photoluminescence quantum yield (in ClCCl): 0.209

SMILES: CCCN1c2ccccc2Sc2cc(/C=C\c3cc(=O)oc4c(O)c(O)ccc34)ccc21
- photoluminescence quantum yield (in ClC(Cl)Cl): 0.37

SMILES: CCC(=O)c1ccc2cc(N(C)C)ccc2c1
- photoluminescence quantum yield (in C1CCOC1): 0.83
- photoluminescence quantum yield (in C1COCCO1): 0.61
- photoluminescence quantum yield (in CC#N): 0.94
- photoluminescence quantum yield (in CCCCCC): 0.02
- photoluminescence quantum yield (in CCCCCCC): 0.019
- photoluminescence quantum yield (in CCCCCCCCO): 0.385
- photoluminescence quantum yield (in CCO): 0.95
- photoluminescence quantum yield (in CN(C)C=O): 0.92
- photoluminescence quantum yield (in CO): 0.71
- photoluminescence quantum yield (in CS(C)=O): 0.75
- photoluminescence quantum yield (in Cc1ccccc1): 0.52
- photoluminescence quantum yield (in ClC(Cl)Cl): 0.88
- photoluminescence quantum yield (in ClCCl): 0.94

SMILES: Cc1cc2nc3cc(C)c(N)cc3[n+](-c3ccccc3)c2cc1N
- photoluminescence quantum yield (in CCO): 0.292
- photoluminescence quantum yield (in O): 0.058

SMILES: CCCCCCCCOc1ccc(C#Cc2c3cc4ccccc4cc3c(C#Cc3ccc(F)cc3)c3cc4ccccc4cc23)cc1
- photoluminescence quantum yield (in ClCCl): 0.03

SMILES: CCCCCCOc1cc(/C=C/c2cc(OCCCCCC)c(/C=C/c3cc(OCCCCCC)c(C=O)cc3OCCCCCC)cc2OCCCCCC)c(OCCCCCC)cc1C=O
- photoluminescence quantum yield (in ClCCl): 0.52

SMILES: c1ccc(-p2c(-c3cccs3)cc3ccccc32)cc1 (stereo unspecified)
- photoluminescence quantum yield (in C1CCOC1): 0.07

SMILES: Cc1ccc(C2=C3C=CC([Te]c4ccccc4)=[N+]3[B-](F)(F)n3c([Te]c4ccccc4)ccc32)cc1
- photoluminescence quantum yield (in C1CCOC1): 0.01

SMILES: C#CCn1c2ccccc2c2cc(/C=C/C3=[N+]4C(=C(c5ccc(I)cc5)c5c(C)c(Cl)c(/C=C/c6ccc7c(c6)c6ccccc6n7CC#C)n5[B-]4(F)F)C(C)=C3Cl)ccc21
- photoluminescence quantum yield (in CC#N): 0.5
- photoluminescence quantum yield (in CS(C)=O): 0.32
- photoluminescence quantum yield (in ClC(Cl)Cl): 0.55

SMILES: CCC1=C(C)C(=O)n2c1cc1c(CCC(=O)O)c(C)c(C)n1c2=O
- photoluminescence quantum yield (in CO): 0.95
- photoluminescence quantum yield (in CS(C)=O): 1
- photoluminescence quantum yield (in ClC(Cl)Cl): 1
- photoluminescence quantum yield (in c1ccccc1): 0.84

SMILES: COc1ccc(-n2cccc2)cc1
- photoluminescence quantum yield (in CC#N): 0.33
- photoluminescence quantum yield (in CCCCCC): 0.26

SMILES: CCCCCCN1C(=O)C(c2ccc(-c3ccc(-n4c5ccccc5c5ccccc54)cc3)cc2)=C(c2ccc(-c3ccc(-n4c5ccccc5c5ccccc54)cc3)cc2)C1=O
- photoluminescence quantum yield (in ClC(Cl)Cl): 0.84
- photoluminescence quantum yield [1]: 0.57

SMILES: CCCCN1C(=O)c2cc(Br)c3c4c(Br)cc5c6c(cc(Br)c(c7c(Br)cc(c2c37)C1=O)c64)C(=O)N(CCCC)C5=O
- photoluminescence quantum yield (in ClC(Cl)Cl): 0.31

SMILES: COc1ccc2c(c1)N(c1ccc(C)cc1)c1cc3c(cc1=N2)Oc1c(cc(C(C)(C)C)cc1C(C)(C)C)N=3
- photoluminescence quantum yield (in CCCCCC): 0.35

SMILES: c1ccc([Si]2(c3ccccc3)c3ccccc3-c3cc4c(cc32)-c2ccccc2[Si]4(c2ccccc2)c2ccccc2)cc1
- photoluminescence quantum yield (in ClCCl): 0.56

SMILES: Cc1cc(O)c(-c2[nH]c(=O)n3c2-c2ccccc2C3=O)cc1Cl
- photoluminescence quantum yield (in CC#N): 0.56
- photoluminescence quantum yield (in CO): 0.3
- photoluminescence quantum yield (in ClCCl): 0.61

SMILES: CN(C)c1ccc(-c2ccc(-c3cc(-c4ccccc4)c(-c4ccccc4)c(-c4ccccc4)c3-c3ccccc3)cc2)cc1
- photoluminescence quantum yield (in ClC(Cl)Cl): 0.14

SMILES: C(#Cc1c(C#Cc2ccccc2)c(C#Cc2ccccc2)c(C#Cc2ccccc2)c(C#Cc2ccccc2)c1C#Cc1ccccc1)c1ccccc1
- photoluminescence quantum yield (in ClCCl): 0.43

SMILES: CC(C)(C)c1ccc(-n2c(-c3ccc(-c4ccc(N(c5ccccc5)c5ccccc5)cc4)cc3)nc3c4ccccc4c4ccccc4c32)cc1
- photoluminescence quantum yield (in ClCCl): 1

SMILES: COc1cccc2c1C(=O)c1ccccc1-2
- photoluminescence quantum yield (in CC#N): 0.0073
- photoluminescence quantum yield (in CC(C)O): 0.029
- photoluminescence quantum yield (in CCCCO): 0.023
- photoluminescence quantum yield (in CCCO): 0.021
- photoluminescence quantum yield (in CCO): 0.02
- photoluminescence quantum yield (in CO): 0.011

SMILES: O=S1(=O)c2ccccc2Oc2cc(N3c4ccccc4C4(c5ccccc53)c3ccccc3N(c3ccc5c(c3)Oc3ccccc3S5(=O)=O)c3ccccc34)ccc21
- photoluminescence quantum yield [2]: 0.63

SMILES: CC(C)(C)c1ccc(-c2cc(-c3ccc(-c4cc(-c5ccc(C(C)(C)C)cc5)c(C(=O)NCc5ccccc5)s4)s3)sc2C(=O)NCc2ccccc2)cc1
- photoluminescence quantum yield (in ClCCl): 0.33

SMILES: O=C1OC(=O)c2cc(Oc3ccccc3)c3c4ccc5c6c(cc(Oc7ccccc7)c(c7ccc1c2c73)c64)C(=O)OC5=O
- photoluminescence quantum yield (in C1CCOC1): 0.5
- photoluminescence quantum yield (in CN1CCCC1=O): 0.2
- photoluminescence quantum yield (in CN(C)C=O): 0.6

SMILES: Nc1cc2ccc3cccc4ccc(c1)c2c34
- photoluminescence quantum yield (in CC#N): 0.14
- photoluminescence quantum yield (in CCCCOCCCC): 0.19
- photoluminescence quantum yield (in CO): 0.17

SMILES: Brc1ccc(/C=C/c2cnc3ccccc3n2)cc1
- photoluminescence quantum yield (in ClCCl): 0.02

SMILES: F[B-]1(F)n2cccc2C=C2c3ccccc3C(c3ccc[nH]3)=[N+]21
- photoluminescence quantum yield (in C1CCOC1): 0.82
- photoluminescence quantum yield (in CC#N): 0.8
- photoluminescence quantum yield (in CCCCCC): 0.83
- photoluminescence quantum yield (in CO): 0.76
- photoluminescence quantum yield (in Cc1ccccc1): 0.81
- photoluminescence quantum yield (in ClCCl): 0.8

SMILES: Cc1ccc(-c2c3nc(c(-c4ccc(C)cc4)c4ccc([nH]4)c(-c4ccc(OC(=O)C(C)c5cccc(C(=O)c6ccccc6)c5)cc4)c4nc(c(-c5ccc(C)cc5)c5ccc2[nH]5)C=C4)C=C3)cc1 (stereo unspecified)
- photoluminescence quantum yield (in ClCCl): 0.12

SMILES: Cc1cccc2nc3[nH]c(=O)[nH]c(=O)c3nc12
- photoluminescence quantum yield (in CC#N): 0.017

SMILES: C(#Cc1ccc(C#Cc2ccccc2)cc1)c1ccccc1
- photoluminescence quantum yield (in ClC(Cl)Cl): 0.5

SMILES: CCCCCCCCCCc1cc(-c2cc(CCCCCCCCCC)c(-c3cccs3)s2)sc1-c1cccs1
- photoluminescence quantum yield (in CCC(C)C): 0.16

SMILES: CCC1=C(C2=C(C3=C(CC)S(=O)(=O)c4cc(-c5ccc(CO)cc5)ccc43)C(F)(F)C(F)(F)C2(F)F)c2ccc(-c3ccc(CO)cc3)cc2S1(=O)=O
- photoluminescence quantum yield (in C1COCCO1): 0

SMILES: CSc1sc(C(N)=O)c2nnn(C)c(=O)c12
- photoluminescence quantum yield (in C1CCOC1): 0.5
- photoluminescence quantum yield (in CC#N): 0.38
- photoluminescence quantum yield (in CCO): 0.22
- photoluminescence quantum yield (in CN(C)C=O): 0.27
- photoluminescence quantum yield (in CO): 0.16
- photoluminescence quantum yield (in CS(C)=O): 0.1

SMILES: CC1(C)c2ccccc2-n2c(-c3ccc(N4c5ccccc5Oc5ccccc54)cc3)nc3cccc1c32
- photoluminescence quantum yield (in Cc1ccccc1): 0.31
- photoluminescence quantum yield [2]: 0.71

SMILES: CCCCCCCCCc1c2ccccc2cc2c1oc1c3oc4c5oc6cc7ccccc7cc6c5c5ccccc5c4c3c3ccccc3c21
- photoluminescence quantum yield (in C1CCOC1): 0.75

SMILES: CCCCN1/C(=C\c2c(-c3ccc(N(C)C)cc3)c(=O)c2=O)C=Cc2ccccc21
- photoluminescence quantum yield (in C1CCCCC1): 0.0242
- photoluminescence quantum yield (in Cc1ccccc1): 0.0163
- photoluminescence quantum yield (in ClCCl): 0.001

SMILES: Cc1cccc2nc3c(=O)[nH]c(=O)[nH]c3nc12
- photoluminescence quantum yield (in C1COCCO1): 0.033
- photoluminescence quantum yield (in CC#N): 0.018
- photoluminescence quantum yield (in CCO): 0.03
- photoluminescence quantum yield (in CO): 0.044
- photoluminescence quantum yield (in ClCCCl): 0.028
- photoluminescence quantum yield (in O): 0.053

SMILES: N#Cc1nc(N(Cc2ccccc2I)Cc2ccccc2I)c(C#N)nc1N(Cc1ccccc1I)Cc1ccccc1I
- photoluminescence quantum yield (in ClC(Cl)Cl): 0.61

SMILES: CC(=O)Nc1cc2ccc3cccc4ccc(c1)c2c34
- photoluminescence quantum yield (in CC#N): 0.09
- photoluminescence quantum yield (in CCCCOCCCC): 0.1
- photoluminescence quantum yield (in CO): 0.07

SMILES: CN(C)c1ccc(/C=C/C=C/c2nc3ccccc3s2)cc1
- photoluminescence quantum yield (in CC#N): 0.0068
- photoluminescence quantum yield (in CCCCCC): 0.022
- photoluminescence quantum yield (in CCCCO): 0.0044
- photoluminescence quantum yield (in CCCO): 0.0054
- photoluminescence quantum yield (in CCO): 0.0045
- photoluminescence quantum yield (in CN(C)C=O): 0.0064
- photoluminescence quantum yield (in CO): 0.0039
- photoluminescence quantum yield (in Cc1ccccc1): 0.0088
- photoluminescence quantum yield (in ClCCl): 0.0054
- photoluminescence quantum yield (in OCC(O)CO): 0.039
- photoluminescence quantum yield (in OCCO): 0.0062

SMILES: CCc1c(C)c2n(c1C)[B-](F)(F)[N+]1=C(c3ccc[nH]3)c3ccccc3C1=C2
- photoluminescence quantum yield (in C1CCOC1): 0.71
- photoluminescence quantum yield (in CC#N): 0.74
- photoluminescence quantum yield (in CCCCCC): 0.82
- photoluminescence quantum yield (in CO): 0.65
- photoluminescence quantum yield (in Cc1ccccc1): 0.72
- photoluminescence quantum yield (in ClCCl): 0.66

SMILES: CN(C)c1ccc2c(c1)[Si](C)(C)C1=CC(=[N+](C)C)C=CC1=C2C#Cc1ccccc1
- photoluminescence quantum yield (in CO): 0.07
- photoluminescence quantum yield (in O): 0.004

SMILES: N#Cc1c(-n2nnc3cc(Cl)ccc32)n([C@H]2C[C@H](O)[C@@H](CO)O2)c2ncnc(N)c12
- photoluminescence quantum yield (in CO): 0.008
